In paper PMC5829257, “Structure, computational and biochemical analysis of PcCel45A endoglucanase from Phanerochaete chrysosporium and catalytic mechanisms of GH45 subfamily C members” (Scientific Reports, 2018):

Target: T1, PcCel45A (Phanerodontia chrysosporium, UniProt B3Y002)
T1 construct: gene egv; mature single catalytic domain; pEXPYR+ vector, secreted from Aspergillus nidulans A773 (Results text says A. niger)
Assay: X-ray crystallography of the complex
Type: binding
Conditions: bound at +1 and +2 subsites of the active-site groove; crystals in ammonium sulfate, Hepes pH 7.5, MPD

T1 sequence (B3Y002 entry or part of it): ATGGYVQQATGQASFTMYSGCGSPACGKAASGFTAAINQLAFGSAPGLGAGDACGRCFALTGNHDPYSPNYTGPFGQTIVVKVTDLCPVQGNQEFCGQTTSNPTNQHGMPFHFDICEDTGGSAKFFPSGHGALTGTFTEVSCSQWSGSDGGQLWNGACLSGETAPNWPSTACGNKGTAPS

SMILES: OC[C@H]1O[C@@H](O[C@H]2[C@H](O)[C@@H](O)C(O)O[C@@H]2CO)[C@H](O)[C@@H](O)[C@@H]1O (stereo partly shown) [cellobiose]
- X-ray crystallography of the complex: The structure of the PcCel45A-cellobiose complex revealed a single cellobiose molecule within the active-site groove
